US20070134221A1, “Stabilizing peptides” (priority 2003, published 2007)
Like-named read-outs stand apart in the source and are kept apart here.

Experiments:
[1] = tested on: HIV-1 94ZW103; assay type: cell-based
Experimental: (§1) PBMC Infectivity Assay. PBMC were isolated from healthy blood donors by Ficoll-Hypaque centrifugation and then stimulated for 2-3 days with phytohemagglutinin (5 μg/ml) and interleukin-2 (100 U/ml). The inhibition assay was performed essentially as described previously (Trkola, A., T. Ketas, V. N. KewalRamani, F. Endorf, J. M. Binley, H. Katinger, J. Robinson, D. R. Littman, and J. P. Moore. 1998. Neutralization sensitivity of human immunodeficiency virus type 1 primary isolates to antibodies and CD4-based reagents is independent of co-receptor usage. J. Virol. 72:1876-1885; Trkola, A., W. A. Paxton, S. P. Monard, J. A. Hoxie, M. A. Siani, D. A. Thompson, L. Wu, C. R. Mackay, R. Horuk, and J. P. Moore. 1998. Genetic subtype-independent inhibition of human immunodeficiency virus type 1 replication by CC and CXC chemokines. J. Virol. 72:396-404).
(§2) Briefly, the virus inoculum was adjusted to 400-1,000 TCID50/ml in assay medium (RPMI 1640, 10% FCS, 100 U of interleukin-2 per ml, glutamine, and peptides), and 50 μl aliquots were incubated with serial dilutions of the peptide inhibitors (50 μl) for 1 h at 37° C. […] RBMC (4×10^5 in 100 μl of medium) were then added. The final concentration of virus in the cultures was 20-50 TCID50/well, corresponding to 100-250 TCID50/ml. Peptides, virus, and cells were then incubated for 5-7 days at 37° C., and the extent of viral replication was determined by p24 antigen ELISA of the culture supernatants. The viral inocula in 50% tissue culture infectious doses (TCID50) were 400-1000/ml.

[2] = tested on: HIV-1 JFRL; assay type: cell-based
Experimental: as §1, §2

[3] = tested on: HIV-1 NL4-3; assay type: cell-based
Experimental: as §1, §2

[4] = tested on: HIV-1 UG270; assay type: cell-based
Experimental: as §1, §2

[5] = tested on: HIV-1 BZ162; assay type: cell-based; settings: human PBMC, 5-7 days, p24 ELISA; second line of the isolate = second separate assay; read-out: Antiviral activity IC50, HIV-1 BZ162
Experimental: as §1, §2

[6] = tested on: HIV-1 CM.235; assay type: cell-based; settings: human PBMC, 5-7 days, p24 ELISA; second line of the isolate = second separate assay; read-out: Antiviral activity IC50, HIV-1 CM.235
Experimental: as §1, §2

[7] = tested on: HIV-1 Case C 7/86; assay type: cell-based; settings: human PBMC, 5-7 days, p24 ELISA; second line of the isolate = second separate assay; read-out: Antiviral activity IC50, HIV-1 Case C 7/86
Experimental: as §1, §2

[8] = tested on: HIV-1 DJ258; assay type: cell-based; settings: human PBMC, 5-7 days, p24 ELISA; second line of the isolate = second separate assay; read-out: Antiviral activity IC50, HIV-1 DJ258
Experimental: as §1, §2

[9] = Circular dichroism spectroscopy; assay type: physicochemical; settings: 10 μM peptide, 50 mM Tris-HCl (pH 8.0), 10 mM NaCl, 4° C.
Experimental: CD measurements of the peptides were carried out on an Aviv 62 DS circular dichroism spectrometer (Aviv Biomedical, Lakewood, N.J.). Peptides were dissolved in 50 mM Tris-HCl (pH 8.0) and 10 mM NaCl with a total peptide concentration of 10 μM. The wavelength dependence of molar ellipticity, [θ], was monitored at 4° C. as the average of five scans, using a five-second integration time at 1.0 nm wavelength increments. Spectra were baseline-corrected against the cuvette with buffer alone. […] Thermal stability was determined by monitoring the change in CD signal at 222 nm as a function of temperature, and thermal melts were performed in two-degree intervals with a two-minute equilibration at the desired temperature, and an integration time of 30 s. Reversibility was checked by repeated scans.

[10] = human PBMC, 5-7 days, p24 ELISA, second line of the isolate = second separate assay, read-out: Antiviral activity IC50, HIV-1 94ZW103
[11] = human PBMC, 5-7 days, p24 ELISA, second line of the isolate = second separate assay, read-out: Antiviral activity IC50, HIV-1 JFRL
[12] = human PBMC, 5-7 days, p24 ELISA, second line of the isolate = second separate assay, read-out: Antiviral activity IC50, HIV-1 NL4-3
[13] = human PBMC, 5-7 days, p24 ELISA, second line of the isolate = second separate assay, read-out: Antiviral activity IC50, HIV-1 UG270

Compound	IC50 ([1]; 94ZW103)	IC50 ([2]; JFRL)	IC50 ([3]; NL4-3)	IC50 ([4]; UG270)	IC50 [1, 10]	IC50 [5]	IC50 [6]	IC50 [7]	IC50 [8]	IC50 [2, 11]	IC50 [3, 12]	IC50 [4, 13]	Structure in solution by circular dichroism [9]
Enfuvirtide	18 nM	10 nM	44 nM	139 nM	–	–	–	–	–	–	–	–	–
CC[C@H](C)[C@H](NC(=O)[C@H](CCCCN)NC(=O)[C@@H](NC(=O)[C@H](CC(N)=O)NC(=O)[C@H](Cc1ccccc1)NC(=O)[C@H](Cc1c[nH]c2ccccc12)NC(=O)[C@H](CC(N)=O)NC(=O)[C@H](Cc1c[nH]c2ccccc12)NC(=O)[C@H](CC(C)C)NC(=O)[C@H](CO)NC(=O)[C@H](C)NC(=O)[C@H](Cc1c[nH]c2ccccc12)NC(=O)[C@H](CCCCN)NC(=O)[C@H](CC(=O)O)NC(=O)[C@H](CC(C)C)NC(=O)[C@H](CCC(=O)O)NC(=O)[C@H](CC(C)C)NC(=O)[C@H](CC(C)C)NC(=O)[C@H](CCC(=O)O)NC(=O)[C@H](CCC(N)=O)NC(=O)[C@H](CCC(=O)O)NC(=O)[C@H](CC(N)=O)NC(=O)[C@H](CCCCN)NC(=O)[C@H](CCC(=O)O)NC(=O)[C@H](CCC(N)=O)NC(=O)[C@H](CC(C)C)NC(=O)[C@H](CC(N)=O)NC(=O)[C@H](CCC(N)=O)NC(=O)[C@H](CO)NC(=O)[C@H](CCC(=O)O)NC(=O)[C@H](CCC(=O)O)NC(=O)[C@@H](NC(=O)[C@H](CC(C)C)NC(=O)[C@H](CO)NC(=O)[C@H](Cc1c[nH]cn1)NC(=O)[C@@H](NC(=O)[C@H](CC(C)C)NC(=O)[C@H](CO)NC(=O)[C@@H](NC(=O)[C@H](Cc1ccc(O)cc1)NC(=O)[C@H](CC(N)=O)NC(=O)[C@H](CC(N)=O)NC(=O)[C@@H](NC(=O)[C@H](CCC(=O)O)NC(=O)[C@H](CCCNC(=N)N)NC(=O)[C@H](CC(=O)O)NC(=O)[C@H](Cc1c[nH]c2ccccc12)NC(=O)[C@H](CCC(=O)O)NC(=O)[C@H](CCSC)NC(=O)[C@H](Cc1c[nH]c2ccccc12)NC(=O)[C@@H](NC(=O)[C@@H](NC(=O)[C@H](Cc1c[nH]cn1)NC(=O)[C@@H](N)CC(N)=O)[C@@H](C)O)[C@@H](C)O)[C@@H](C)CC)[C@@H](C)O)[C@@H](C)CC)[C@@H](C)CC)[C@@H](C)CC)C(=O)N[C@@H](CCCCN)C(=O)O [Peptide C52F, NHTTWMEWDREINNYTSLIHSLIEESQNLQEKNEQELLELDKWASLWNWFNI-KIK]	–	–	–	–	4 nM	2 nM	11 nM	49 nM	9 nM	5 nM	23 nM	68 nM	forms an α-helical structure in solution
CC[C@H](C)[C@H](NC(=O)[C@H](CCCCN)NC(=O)[C@@H](NC(=O)[C@H](CC(N)=O)NC(=O)[C@H](Cc1ccccc1)NC(=O)[C@H](Cc1c[nH]c2ccccc12)NC(=O)[C@H](CC(N)=O)NC(=O)[C@H](Cc1c[nH]c2ccccc12)NC(=O)[C@H](CC(C)C)NC(=O)[C@H](CO)NC(=O)[C@H](C)NC(=O)[C@H](Cc1c[nH]c2ccccc12)NC(=O)[C@H](CCCCN)NC(=O)[C@H](CC(=O)O)NC(=O)[C@H](CC(C)C)NC(=O)[C@H](CCC(=O)O)NC(=O)[C@H](Cc1ccccc1)NC(=O)[C@H](CC(C)C)NC(=O)[C@H](CCC(=O)O)NC(=O)[C@H](CCC(N)=O)NC(=O)[C@H](CCC(=O)O)NC(=O)[C@H](C)NC(=O)[C@H](CCCCN)NC(=O)[C@H](CCC(=O)O)NC(=O)[C@H](CCC(N)=O)NC(=O)[C@H](CC(C)C)NC(=O)[C@H](CC(N)=O)NC(=O)[C@H](CCC(N)=O)NC(=O)[C@H](CO)NC(=O)[C@H](CCC(=O)O)NC(=O)[C@H](CCC(=O)O)NC(=O)[C@H](Cc1ccccc1)NC(=O)[C@H](CC(C)C)NC(=O)[C@H](CO)NC(=O)[C@H](Cc1c[nH]cn1)NC(=O)[C@@H](NC(=O)[C@H](CC(C)C)NC(=O)[C@H](CO)NC(=O)[C@@H](NC(=O)[C@H](Cc1ccc(O)cc1)NC(=O)[C@H](CC(N)=O)NC(=O)[C@H](CC(N)=O)NC(=O)[C@@H](NC(=O)[C@H](CCC(=O)O)NC(=O)[C@H](CCCNC(=N)N)NC(=O)[C@H](CC(=O)O)NC(=O)[C@H](Cc1c[nH]c2ccccc12)NC(=O)[C@H](CCC(=O)O)NC(=O)[C@H](CCSC)NC(=O)[C@H](Cc1c[nH]c2ccccc12)NC(=O)[C@@H](NC(=O)[C@@H](NC(=O)[C@H](Cc1c[nH]cn1)NC(=O)[C@@H](N)CC(N)=O)[C@@H](C)O)[C@@H](C)O)[C@@H](C)CC)[C@@H](C)O)[C@@H](C)CC)[C@@H](C)CC)C(=O)N[C@@H](CCCCN)C(=O)O [Peptide C52L, NHTTWMEWDREINNYTSLIHSLFEESQNLQEKAEQELFELDKWASLWNWFNI-KIK]	–	–	–	–	3 nM	3 nM	12 nM	17 nM	11 nM	6 nM	20 nM	61 nM	forms an α-helical structure in solution
